From US20250340911A1, “METHOD FOR PRODUCING FROM FATTY ALCOHOLS MONOMERS FOR PRODUCING VARIOUS SYNTHETIC RESINS” (priority 2022, published 2025)

System: recombinant Candida tropicalis Ct6 strain
Test: Cytotoxicity of synthesized (biomass-derived) dialkyl ethers to recombinant strain, growth by absorbance at 600 nm
Format: cell-based
Details: 0-5% ether in YPD medium, 48-well plate, 24 hours or more, ether synthesized in Example 1
Description: The cytotoxicity of the dioctyl ether synthesized as described above was analyzed. 200 μl of a mixed solution of YPD medium (10 g/L yeast extract, 20 g/L Bacto peptone, 20 g/L glucose) and each concentration (0, 0.25, 0.5, 1, 2, 3, 4, or 5%) of dioctyl ether was added to each well of a 48-well plate. After 2 μl of a culture of a recombinant Candida tropicalis Ct6 strain cultured overnight in YPD medium at 30° C. and 200 rpm was further added to each well, the absorbance at 600 nm was measured using a plate reader at 30° C. for 24 hours or more at 15-minute intervals. The maximum specific growth rate (μm) and lag time were calculated using the Gompertz growth equation.
The cytotoxicity of the didodecyl ether synthesized as described above was analyzed. 200 μl of a mixed solution of YPD medium and each concentration (0, 0.25, 0.5, 1, 2, 3, 4, or 5%) of didodecyl ether was added to each well of a 48-well plate. After 2 μl of a culture of a recombinant Candida tropicalis Ct6 strain cultured overnight in YPD medium at 30° C. and 200 rpm was further added to each well, the absorbance at 600 nm was measured using a plate reader at 33° C. for 24 hours or more at 15-minute intervals. The maximum specific growth rate and lag time were calculated using the Gompertz growth equation.

Row | Compound | cytotoxicity (maximum specific growth rate and lag time, Gompertz growth equation)
1 | CCCCCCCCCCCCOCCCCCCCCCCCC [Didodecyl ether, didodecyl ether] | almost no cytotoxicity
2 | CCCCCCCCOCCCCCCCC [Dioctyl ether, dioctyl ether] | almost no cytotoxicity
